Laboratory results reported in patent publication US20230332232A1, “COMPOSITIONS AND METHODS FOR DIAGNOSING AND TREATING A DYSTONIA” (Duke University, priority 2020, published 2023).

System: wild-type (WT) murine embryonic fibroblasts (MEFs)
Experiment: Untargeted LC/MS/MS proteomics of EVs from WT MEFs exposed 24 hours to drug, compared with untreated WT MEFs
Format: cell-based, mouse
Conditions: for direction of modulated EV protein expression: WT cells
Method: Methods for isolation and purification of exosomes and extracellular vesicles (EV) were extensively reviewed. Experiments were performed to arrive at a robust and reproducible protocol. The protocol used herein is that set forth in Théry et al, 2006, which is incorporated by reference for it teaching of this protocol. This protocol involves depleting serum-derived EVs from cell culture media by overnight ultracentrifugation and exchanging media for 1% FBS EV-depleted media. Media is then collected from cells following a 24-hour conditioning period and EVs are isolated by 18-hour ultracentrifugation at 100,000 g (FIG. 1A).
EVs were isolated from media of cultured murine embryonic fibroblasts (MEFs) prepared in-house according to protocols described by Xu 2005 from DYT1 knockin mice (Tor1a^delGAG/+) (Goodchild R E, et al. (2005) Neuron. 48:923-932) and littermate wild-type (WT) controls. The cultured MEFs from the DYT1 mice were exposed for 24 hours to Ritonavir (RTV) while the MEFs from WT mice were exposed to vehicle, ISRIB, or Salubrinal (SAL). The EVs isolated from these WT cells and DYT1 were characterized by untargeted proteomics and RNA-seq to identify differentially expressed proteins and RNAs as candidate biomarkers. Experimenter and Proteomics core staff were blinded to genotype of cell cultures throughout preparation and analysis phases. EV isolation was confirmed by Western immunoblot documenting presence of the exosomal marker (TSG101) and absence of the endoplasmic reticulum (ER) marker (CANX) (FIG. 1B (Cohort 1) and FIG. 1C (Cohort 2)).
Following the bicinchoninic acid assay (BCA) analysis and Western immunoblot of a portion of samples for QC, 11.6 μg-129.2 μg of EV protein lysates in RIPA buffer were sent to the Duke Proteomics and Metabolomics Shared Resource core facility for LC/MS/MS quantitative proteomic analysis. Samples were first normalized to 20 μg and spiked with undigested casein at a total of 40 fmol/μg, 80 fmol/μg, or 160 fmol/μg, then reduced with 10 mM dithiolthreitol for 30 minute at 80° C. and alkylated with 20 mM iodoacetamide for 30 minutes at room temperature. Next, the samples were supplemented with a final concentration of 1.2% phosphoric acid and 741 μL of S-Trap (Protifi) binding buffer (90% MeOH/100 mM […]). Proteins were trapped on the S-Trap, digested using 20 ng/μL sequencing grade trypsin (Promega) for 1 hour at 47° C., and eluted using 50 mM TEAB, followed by 0.2% FA, and lastly using 50% CAN/0.2% FA. All samples were then lyophilized to dryness and resuspended in 40 μL 1% TFA/2% acetonitrile containing 12.5 fmol/μL yeast alcohol dehydrogenase (ADH_YEAST). A QC Pool was created from 3 uL of each sample. All QC Pools were run periodically throughout the acquisition period.
Quantitative LC/MS/MS was performed on 2 μL of each sample, using a nanoAcquity UPLC system (Waters Corp) coupled to a Thermo Orbitrap Fusion Lumos high resolution accurate mass tandem mass spectrometer (Thermo) via a nanoelectrospray ionization source. Briefly, the sample was first trapped on a Symmetry C18 20 mm×180 μm trapping column (5 μL/min at 99.9/0.1 v/v water/acetonitrile), after which the analytical separation was performed using a 1.8 μm Acquity HSS T3 C18 75 μm×250 mm column (Waters Corp.) with a 90 minute linear gradient of 5% to 30% acetonitrile with 0.1% formic acid at a flow rate of 400 nanoliters/minute (nL/min) with a column temperature of 55° C. Data collection on the Fusion Lumos mass spectrometer was performed in a data-dependent acquisition (DDA) mode of acquisition with a r=120,000 (@ m/z 200) full MS scan from m/z 375-1500 with a target AGC value of 2e5 ions. MS/MS scans were acquired at Rapid scan rate (Ion Trap) with an AGC target of 5e3 ions and a max injection time of 100 ms. The total cycle time for MS and MS/MS scans was 2 seconds. A 20 second dynamic exclusion was employed to increase depth of coverage. The total analysis cycle time for each sample injection was approximately 2 hours. […]

[1] = EV protein Prep, Prolyl endopeptidase
[2] = EV protein Protein transport protein Sec31A
[3] = EV protein Q8BPB5, EGF-containing fibulin-like ECM protein 1
[4] = EV protein Q8C878, NEDD8-activating enzyme E1 catalytic subunit
[5] = EV protein Q8R081, Heterogeneous nuclear ribonucleoprotein 1
[6] = EV protein Q9D1M4, Eukaryotic translation EF1 epsilon-1
[7] = EV protein Q62261, Spectrin beta chain, non-crythrocytic 1
[8] = EV protein Q89051, Integral membrane protein 2B
[9] = EV protein Regulator of nonsense transcripts 1

O=C(COc1ccc(Cl)cc1)NC1CCC(NC(=O)COc2ccc(Cl)cc2)CC1 (stereo not drawn) [ISRIB]
ISRIBvWT Z Score (EV protein P27612, Phospholipase A-2-activating protein): −2.39 | ISRIB Direction Same as dE? (EV protein P48678, Prelamin-): yes | ISRIBvWT Z Score (EV protein P48678, Prelamin-): −0.19 | ISRIBvWT Z Score (EV protein P61089, Ubiquitin-conjugating enzyme): 0.41 | ISRIBvWT Z Score (EV protein Pdia4 (P08003)): 1.37 | ISRIBvWT Z Score (EV protein Penk (P22005)): −0.11 | ISRIBvWT Z Score (EV protein Plaa P27612): −2.39 | ISRIBvWT Z Score (EV protein Pld3 (Q35405)): 1.18 | ISRIB Direction Same as dE? [1]: yes | ISRIBvWT Z Score [1]: −1.11 | ISRIB Direction Same as dE? [2]: yes | ISRIBvWT Z Score [2]: −1.34 | ISRIB Direction Same as dE? (EV protein Prpf8 (Q99PV0)): yes | ISRIBvWT Z Score (EV protein Prpf8 (Q99PV0)): −0.01 | ISRIB Direction Same as dE? (EV protein Psmd1 (Q3TXS7)): yes | ISRIBvWT Z Score (EV protein Psmd1 (Q3TXS7)): −0.65 | ISRIBvWT Z Score (EV protein Pura (P42669)): 0.52 | ISRIBvWT Z Score (EV protein Q6X893, Choline transporter-like protein 1): 0.80 | ISRIBvWT Z Score (EV protein Q8BL97, Serine arginine-rich splicing factor 7): 0.13 | ISRIB Direction Same as dE? [3]: yes | ISRIBvWT Z Score [3]: 0.07 | ISRIB Direction Same as dE? [4]: yes | ISRIBvWT Z Score [4]: −1.68 | ISRIBvWT Z Score (EV protein Q8C878 NEDD8-activating enzyme .. subunit): −1.68 | ISRIB Direction Same as dE? [5]: yes | ISRIBvWT Z Score [5]: −0.32 | ISRIB Direction Same as dE? [6]: yes | ISRIBvWT Z Score [6]: −3.65 | ISRIBvWT Z Score (EV protein Q9FS30, Complement C1q tumor necrosis factor-related protein 3): −0.18 | ISRIBvWT Z Score (EV protein Q9Z1Z0, General vesicular transport factor p115): 2.44 | ISRIBvWT Z Score (EV protein Q9Z2X1 Heterogeneous nuclear ribonucleoprotein E): −0.18 | ISRIBvWT Z Score (EV protein Q78ZA7, Nucelosome assembly protein 1-like 4): 2.43 | ISRIBvWT Z Score (EV protein Q99KJ8 Dynactin subunit 2): 0.53 | ISRIBvWT Z Score (EV protein Q922B2 Aspartate--tRNA ligase): −1.13 | ISRIBvWT Z Score (EV protein Q01405 Protein transport protein .. 23A): −0.95 | ISRIBvWT Z Score (EV protein Q60751, Insulin-like growth factor 1 receptor): 0.75 | ISRIB Direction Same as dE? [7]: yes | ISRIBvWT Z Score [7]: −0.82 | ISRIB Direction Same as dE? [8]: yes | ISRIBvWT Z Score [8]: −2.13 | ISRIB Direction Same as dE? (EV protein Qars (Q8BML9)): yes | ISRIBvWT Z Score (EV protein Qars (Q8BML9)): −2.14 | ISRIBvWT Z Score (EV protein Rab6a (P35279)): 0.44 | ISRIB Direction Same as dE? (EV protein Rbbp4 (Q60972)): yes | ISRIBvWT Z Score (EV protein Rbbp4 (Q60972)): −1.73 | ISRIB Direction Same as dE? [9]: yes | ISRIBvWT Z Score [9]: −1.84 | ISRIBvWT Z Score (EV protein Rpl22 (P67984)): 2.38 | ISRIBvWT Z Score (EV protein S100a11 (P50543)): 0.33 | ISRIBvWT Z Score (EV protein Scarb2 (Q35114)): 0.09 | ISRIB Direction Same as dE? (EV protein Sec23a (Q01405)): yes | ISRIBvWT Z Score (EV protein Sec23a (Q01405)): −0.95 | ISRIB Direction Same as dE? (EV protein Shmt2 (Q9CZN7)): yes | ISRIBvWT Z Score (EV protein Shmt2 (Q9CZN7)): −1.44 | ISRIBvWT Z Score (EV protein Shrnt2 Q9CZN7): −1.44 | ISRIB Direction Same as dE? (EV protein Spp1 (P10923)): yes | ISRIBvWT Z Score (EV protein Spp1 (P10923)): 2.67 | ISRIB Direction Same as dE? (EV protein Sptan1 (P16546)): yes | ISRIBvWT Z Score (EV protein Sptan1 (P16546)): −0.40 | ISRIBvWT Z Score (EV protein Ssb (P32067)): 0.41 | ISRIB Direction Same as dE? (EV protein Ssbp1 (Q9CYR0)): yes | ISRIBvWT Z Score (EV protein Ssbp1 (Q9CYR0)): −1.49 | ISRIBvWT Z Score (EV protein Svep1 (A2A0A0)): −0.50 | ISRIB Direction Same as dE? (EV protein Tars (Q9D0R2)): yes | ISRIBvWT Z Score (EV protein Tars (Q9D0R2)): −1.16 | ISRIBvWT Z Score (EV protein Tra2b (P62996)): 0.54 | ISRIBvWT Z Score (EV protein Vapa (Q9WV55)): 3.18 | direction of modulated EV protein expression (RTV Therapeutic Efficacy with ISRIB Insensitivity subset, 33 proteins): in the opposite direction of DYT1 genotype-dependent direction | direction of modulated EV protein expression (RTV Therapeutic Efficacy with ISRIB Sensitivity subset, 121 proteins): modulated expression in a predicted pathological direction
